Experimental findings from patent US20090203753A1, “7-(2-amino-1-hydroxy-ethyl)-4-hydroxybenzothiazol-2(3H)-one-derivatives as beta2 adrenoreceptor agonists” (AstraZeneca AB, priority 2005, published 2009) are described below.

Where only a bound is given, the exact number is not on record here.

The target of experiment [1] is T1, recombinant human adrenergic beta 1 receptors (Homo sapiens, UniProt P08588).
T1 construct: purchased Euroscreen
Put plainly: Adrenergic β1 selectivity assay, [125I]-Iodocyanopindolol binding to membranes. The note with it: inhibition of [125I]-Iodocyanopindolol binding (0.036 nM); read-out: β1 bind pIC50 (converted). The protocol: Membranes containing recombinant human adrenergic beta 1 receptors were obtained from Euroscreen. These were diluted in Assay Buffer (50 mM HEPES, 1 mM EDTA, 120 mM NaCl, 0.1% gelatin, pH 7.4) to provide a final concentration of membranes that gave a clear window between maximum and minimum specific binding.
(§1) Assays were performed in U-bottomed 96-well polypropylene plates. 10 μL [^125I]-Iodocyanopindolol (0.036 nM final concentration) and 10 μL of test compound (10× final concentration) were added to each test well. For each assay plate 8 replicates were obtained for [^125I]-Iodocyanopindolol binding in the presence of 10 μL vehicle (10% (v/v) DMSO in Assay Buffer; defining maximum binding) or 10 μL Propranolol (10 μM final concentration; defining non-specific binding (NSB)). Membranes were then added to achieve a final volume of 100 μL. The plates were incubated for 2 hours at room temperature and then filtered onto PEI coated GF/B filter plates, pre-soaked for 1 hour in Assay Buffer, using a 96-well plate Tomtec cell harvester. Five washes with 250 μL wash buffer (50 mM HEPES, 1 mM EDTA, 120 mM NaCl, pH 7.4) were performed at 4° C. to remove unbound radioactivity. The plates were dried then sealed from underneath using Packard plate sealers and MicroScint-O (50 μL) was added to each well. The plates were sealed (TopSeal A) and filter-bound radioactivity was measured with a scintillation counter (TopCount, Packard BioScience) using a 3-minute counting protocol.
(§2) Total specific binding (B0) was determined by subtracting the mean NSB from the mean maximum binding. NSB values were also subtracted from values from all other wells.

Experiment [2] addresses T2, recombinant human α1D receptor (Homo sapiens, UniProt P25100).
T2 construct: expressed in transfected cells; host or cells: HEK293
T2 sequence (P25100 1-572): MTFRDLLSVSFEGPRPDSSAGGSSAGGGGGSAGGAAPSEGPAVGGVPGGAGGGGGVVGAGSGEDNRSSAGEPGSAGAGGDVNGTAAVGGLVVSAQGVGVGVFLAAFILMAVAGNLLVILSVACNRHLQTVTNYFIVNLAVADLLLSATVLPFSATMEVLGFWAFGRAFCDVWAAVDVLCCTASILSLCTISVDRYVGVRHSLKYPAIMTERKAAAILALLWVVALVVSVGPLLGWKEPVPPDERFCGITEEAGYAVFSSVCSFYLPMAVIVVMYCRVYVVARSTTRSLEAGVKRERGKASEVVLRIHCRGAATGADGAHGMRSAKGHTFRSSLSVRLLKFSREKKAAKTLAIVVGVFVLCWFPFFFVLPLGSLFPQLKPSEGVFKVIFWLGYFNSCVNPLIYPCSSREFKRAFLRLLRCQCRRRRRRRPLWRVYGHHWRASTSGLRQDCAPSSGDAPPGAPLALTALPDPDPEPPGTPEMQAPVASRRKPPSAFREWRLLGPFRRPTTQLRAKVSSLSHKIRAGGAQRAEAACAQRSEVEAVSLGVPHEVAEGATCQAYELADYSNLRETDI
In words: Adrenergic α1D selectivity assay, [3H]-prazosin binding to HEK293 membranes. The note with it: read-out: α1 bind pIC50 (converted). As to the method:
Membranes were prepared from human embryonic kidney 293 (HEK293) cells expressing recombinant human α1D receptor. These were diluted in Assay Buffer (50 mM HEPES, 1 mM EDTA, 0.1% gelatin, pH 7.4) to provide a final concentration of membranes that gave a clear window between maximum and minimum specific binding.
as §1, with “[^3H]-prazosin (0.3” for “[^125I]-Iodocyanopindolol (0.036”, “[^3H]-prazosin” for “[^125I]-Iodocyanopindolol”, “BMY7378” for “Propranolol”, “EDTA,” for “EDTA, 120 mM NaCl,”
as §2

A further experiment deals with T3, β2 receptor (Homo sapiens, UniProt P07550).
T3 construct: endogenous in cells; host or cells: H292 cells
T3 sequence (P07550 whole entry): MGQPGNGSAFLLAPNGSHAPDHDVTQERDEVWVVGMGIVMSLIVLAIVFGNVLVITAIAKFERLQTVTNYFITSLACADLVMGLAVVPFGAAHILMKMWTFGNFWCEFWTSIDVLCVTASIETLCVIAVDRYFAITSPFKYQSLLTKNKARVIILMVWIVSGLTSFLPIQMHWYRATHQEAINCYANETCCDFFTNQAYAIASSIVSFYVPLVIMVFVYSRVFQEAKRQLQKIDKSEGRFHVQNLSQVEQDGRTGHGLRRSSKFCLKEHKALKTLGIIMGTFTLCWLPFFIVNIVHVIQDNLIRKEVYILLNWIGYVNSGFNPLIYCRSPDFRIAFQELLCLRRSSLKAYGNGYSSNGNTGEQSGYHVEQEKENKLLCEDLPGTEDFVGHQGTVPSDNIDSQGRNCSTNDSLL
In words: Alternative adrenergic β2 mediated cAMP production in H292 cells (60 minutes with test compound). The format is cell-based. The note with it: for EC50: cAMP, 60 minutes incubation with compound, 300 μM rolipram, read-out: β2 pEC50 (converted); for β2 Int Act: fraction relative to the maximum activity determined for formoterol, 60 minutes incubation. As to the method:
Alternative Adrenergic (β2 Mediated cAMP Production
H292 cells were grown in 225 cm2 flasks incubator at 37° C., 5% CO2 in RPMI medium containing, 10% (v/v) FBS (foetal bovine serum) and 2 mM L-glutamine.
Adherent H292 cells were removed from tissue culture flasks by treatment with Accutase™ cell detachment solution for 15 minutes. Flasks were incubated for 15 minutes in a humidified incubator at 37° C., 5% CO2. Detached cells were re-suspended in RPMI media (containing 10% (v/v) FBS and 2 mM L-glutamine) at 0.05×10^6 cells per mL. 5000 cells in 100 μL were added to each well of a tissue-culture-treated 96-well plate and the cells incubated overnight in a humidified incubator at 37° C., 5% CO2. The culture media was removed and cells were washed twice with 100 μL assay buffer and replaced with 50 μL assay buffer (HBSS solution containing 10 mM HEPES pH7.4 and 5 mM glucose). Cells were rested at room temperature for 20 minutes after which time 25 μL of rolipram (1.2 mM made up in assay buffer containing 2.4% (v/v) dimethylsulphoxide) was added. Cells were incubated with rolipram for 10 minutes after which time test compounds were added and the cells were incubated for 60 minutes at room temperature. The final rolipram concentration in the assay was 300 μM and final vehicle concentration was 1.6% (v/v) dimethylsulphoxide. The reaction was stopped by removing supernatants, washing once with 100 μL assay buffer and replacing with 50 μL lysis buffer. The cell monolayer was frozen at −80° C. for 30 minutes (or overnight).
The concentration of cAMP (cyclic adenosine monophosphate) in the cell lysate was determined using AlphaScreen™ methodology. The frozen cell plate was thawed for 20 minutes on a plate shaker then 10 μL of the cell lysate was transferred to a 96-well white plate. 40 μL of mixed AlphaScreen™ detection beads pre-incubated with biotinylated cAMP, was added to each well and the plate incubated at room temperature for 10 hours in the dark. The AlphaScreen™ signal was measured using an EnVision spectrophotometer (Perkin-Elmer Inc.) with the recommended manufacturer's settings. cAMP concentrations were determined by reference to a calibration curve determined in the same experiment using standard cAMP concentrations. Concentration response curves for agonists were constructed and data was fitted to a four parameter logistic equation to determine both the pEC50 and Intrinsic Activity. […]
Background: Cyclic AMP is a second messenger, typically raised through Gs and lowered through Gi signalling.

Experiment [3] has as its target T4, recombinant human Dopamine Subtype D2s receptors (Homo sapiens, UniProt P14416).
T4 construct: purchased Perkin Elmer
In words: Dopamine D2 selectivity assay, [3H]-spiperone binding to membranes. The note with it: read-out: D2 bind pIC50 (converted). As to the method: Membranes containing recombinant human Dopamine Subtype D2s receptors were obtained from Perkin Elmer. These were diluted in Assay Buffer (50 mM HEPES, […], 120 mM NaCl, 0.1% gelatin, pH 7.4) to provide a final concentration of membranes that gave a clear window between maximum and minimum specific binding.
Assays were performed in U-bottomed 96-well polypropylene plates. 30 μL [^3H]-spiperone (0.16 nM final concentration) and 30 μL of test compound (10× final concentration) were added to each test well. For each assay plate 8 replicates were obtained for [^3H]-spiperone binding in the presence of 30 μL vehicle (10% (v/v) DMSO in Assay Buffer; defining maximum binding) or 30 μL Haloperidol (10 μM final concentration; defining non-specific binding (NSB)). Membranes were then added to achieve a final volume of 300 μL. The plates were incubated for 2 hours at room temperature and then filtered onto PEI coated GF/B filter plates, pre-soaked for 1 hour in Assay Buffer, using a 96-well plate Tomtec cell harvester. Five washes with 250 μL wash buffer (50 mM HEPES, 1 mM EDTA, 120 mM NaCl, pH 7.4) were performed at 4° C. to remove unbound radioactivity. The plates were dried then sealed from underneath using Packard plate sealers and MicroScint-O (50 μL) was added to each well. The plates were sealed (TopSeal A) and filter-bound radioactivity was measured with a scintillation counter (TopCount, Packard BioScience) using a 3-minute counting protocol.
as §2

T1 sequence (P08588 whole entry): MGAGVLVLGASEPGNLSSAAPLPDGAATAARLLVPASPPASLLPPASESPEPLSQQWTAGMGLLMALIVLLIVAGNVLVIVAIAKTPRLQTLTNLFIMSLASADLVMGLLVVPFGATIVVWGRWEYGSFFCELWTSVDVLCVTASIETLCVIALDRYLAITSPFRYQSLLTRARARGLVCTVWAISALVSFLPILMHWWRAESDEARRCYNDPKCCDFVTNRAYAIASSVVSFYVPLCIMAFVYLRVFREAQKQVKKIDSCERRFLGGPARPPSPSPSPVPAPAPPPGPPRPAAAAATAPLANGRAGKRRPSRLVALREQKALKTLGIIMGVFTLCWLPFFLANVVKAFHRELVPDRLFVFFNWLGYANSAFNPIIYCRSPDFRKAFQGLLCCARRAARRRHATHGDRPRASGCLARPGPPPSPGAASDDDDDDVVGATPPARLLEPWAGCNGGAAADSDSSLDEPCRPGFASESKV
T4 sequence (P14416 1-414 isoform P14416-2): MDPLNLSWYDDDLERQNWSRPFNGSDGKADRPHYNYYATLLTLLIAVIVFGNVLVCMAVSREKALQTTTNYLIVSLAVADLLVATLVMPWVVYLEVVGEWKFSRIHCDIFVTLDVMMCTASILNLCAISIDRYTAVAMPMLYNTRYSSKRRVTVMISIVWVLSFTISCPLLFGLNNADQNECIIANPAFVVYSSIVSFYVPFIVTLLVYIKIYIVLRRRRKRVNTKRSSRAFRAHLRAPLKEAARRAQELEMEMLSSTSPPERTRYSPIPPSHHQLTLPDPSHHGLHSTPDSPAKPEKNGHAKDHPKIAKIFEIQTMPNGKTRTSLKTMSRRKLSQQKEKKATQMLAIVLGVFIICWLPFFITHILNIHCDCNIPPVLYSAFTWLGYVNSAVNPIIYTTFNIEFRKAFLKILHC

In the case of `CCCCN(CCNC[C@H](O)c1ccc(O)c2[nH]c(=O)sc12)C(=O)CCOCCc1ccccc1.Cl` [Example 2, N-Butyl-N-(2-{[(2R)-2-hydroxy-2-(4-hydroxy-2-oxo-2,3-dihydro-1,3-benzothiazol-7-yl)ethyl]amino}ethyl)-3-(2-phenylethoxy)propanamide Hydrochloride], the IC50 is 6.31 nM in experiment [1], 2510 nM in experiment [2] and over 10 µM in experiment [3]. In addition, the EC50 on β2 receptor is 1 nM. In addition, the “β2 Int Act” value at β2 receptor turned out to be 0.9.
On to `CCN(CC)CCN(CCNC[C@H](O)c1ccc(O)c2[nH]c(=O)sc12)C(=O)CCOCCc1cccc(Cl)c1` [Example 9, 3-[2-(3-Chlorophenyl)ethoxy]-N-[2-(diethylamino)ethyl]-N-(2-{[(2R)-2-hydroxy-2-(4-hydroxy-2-oxo-2,3-dihydro-1,3-benzothiazol-7-yl)ethyl]amino}ethyl)propanamide], for which the IC50 in experiment [1] was 1580 nM; in experiment [2] it was 2000 nM; in experiment [3] it was over 10 µM. At β2 receptor, the EC50 was 3.98 nM. The “β2 Int Act” value on β2 receptor amounted to 0.9.
